This is an account of results in patent US20170057955A1, “Pyridopyrimidinone Compounds for Modulating the Catalytic Activity of Histone Lysine Demethylases (KDMs)” (Dong-A Socio Holdings Co., Ltd., priority 2015, published 2017).

SMILES strings stand for the structures.

In this assay the target is T1, Recombinant human JARID1B/KDM5B (Homo sapiens, UniProt Q9UGL1).
T1 construct: purchased Active Motif 31432; host or cells: Sf9 insect cells
T1 sequence (Q9UGL1 whole entry): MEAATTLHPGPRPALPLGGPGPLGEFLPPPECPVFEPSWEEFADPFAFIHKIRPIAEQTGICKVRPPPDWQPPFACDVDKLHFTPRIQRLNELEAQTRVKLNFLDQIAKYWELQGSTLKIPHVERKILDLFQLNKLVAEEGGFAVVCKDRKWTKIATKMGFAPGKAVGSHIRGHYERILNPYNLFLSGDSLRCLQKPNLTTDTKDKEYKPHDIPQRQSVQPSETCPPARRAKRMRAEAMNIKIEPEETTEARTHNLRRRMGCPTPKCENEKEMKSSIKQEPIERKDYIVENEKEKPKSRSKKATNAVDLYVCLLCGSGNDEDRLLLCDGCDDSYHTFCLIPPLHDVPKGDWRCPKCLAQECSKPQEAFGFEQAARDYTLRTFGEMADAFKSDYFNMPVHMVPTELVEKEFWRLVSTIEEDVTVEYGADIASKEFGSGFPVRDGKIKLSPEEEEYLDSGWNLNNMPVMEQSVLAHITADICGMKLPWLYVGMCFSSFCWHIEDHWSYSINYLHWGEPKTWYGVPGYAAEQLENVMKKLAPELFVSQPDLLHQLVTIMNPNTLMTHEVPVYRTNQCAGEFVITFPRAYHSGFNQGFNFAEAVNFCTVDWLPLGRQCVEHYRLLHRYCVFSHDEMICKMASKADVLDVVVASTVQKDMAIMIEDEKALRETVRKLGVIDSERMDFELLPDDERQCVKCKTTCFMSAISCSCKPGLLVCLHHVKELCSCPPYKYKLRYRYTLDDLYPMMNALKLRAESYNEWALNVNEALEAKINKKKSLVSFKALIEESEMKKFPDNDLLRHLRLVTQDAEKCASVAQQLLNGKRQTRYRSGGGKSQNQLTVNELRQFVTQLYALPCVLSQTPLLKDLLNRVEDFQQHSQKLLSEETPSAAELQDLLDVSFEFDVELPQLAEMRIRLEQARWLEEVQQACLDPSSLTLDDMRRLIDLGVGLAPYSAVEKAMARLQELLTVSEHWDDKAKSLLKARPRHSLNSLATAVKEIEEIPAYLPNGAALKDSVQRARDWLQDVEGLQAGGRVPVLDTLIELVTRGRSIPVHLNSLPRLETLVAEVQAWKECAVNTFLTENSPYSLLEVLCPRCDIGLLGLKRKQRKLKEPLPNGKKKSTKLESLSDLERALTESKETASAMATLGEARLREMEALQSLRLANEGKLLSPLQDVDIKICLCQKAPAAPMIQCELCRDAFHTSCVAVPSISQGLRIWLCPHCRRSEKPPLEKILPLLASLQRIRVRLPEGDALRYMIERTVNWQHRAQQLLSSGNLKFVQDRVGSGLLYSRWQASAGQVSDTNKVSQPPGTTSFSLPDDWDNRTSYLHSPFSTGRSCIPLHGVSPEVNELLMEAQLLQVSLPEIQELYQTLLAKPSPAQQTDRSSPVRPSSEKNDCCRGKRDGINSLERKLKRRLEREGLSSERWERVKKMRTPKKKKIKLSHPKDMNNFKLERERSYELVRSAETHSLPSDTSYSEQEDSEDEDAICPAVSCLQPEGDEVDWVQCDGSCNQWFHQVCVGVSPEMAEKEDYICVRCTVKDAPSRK
Nature of the assay: LANCE Ultra TR-FRET JARID1B (KDM5B) demethylase inhibition assay. The class given is biochemical. The settings on record: 0.1 uM of test-compounds, FLAG-JARID1B, 500 nM biotinylated H3K4me3 peptide substrate, 30 min at room temperature. The text has this:
FLAG-tagged JARID1B (also known as KDM5B) protein was screened against 49 compounds. For this compound screening, LANCE Ultra time-resolved fluorescence resonance energy transfer (TR-FRET) assay was employed using a europoium (Eu)-labeled antibody that can specifically recognize mono- or dimethylated peptides (H3K4me2/1) and ULight-streptavidin (ULight-SA), a small molecule fluorescent dye. When irradiated at 340 nm, the energy from the Eu donor is transferred to the ULight acceptor dye which, in turn, emits light primarily at 665 nm. The ratio between the intensity of primary emission at 665 nm and that of secondary emission at […] was used to quantify the level of lysine methylation. As JARID1B removes more methyl moieties from tri-methylated substrate peptides (H3K4me3), the ratio increases until the enzyme reaction is terminated. In case, therefore, the compounds disrupt the enzymatic activity completely, the ratio becomes equal to a background value.
Recombinant human JARID1B/KDM5B (accession number NP_006609) of molecular weight 179.9 KDa was expressed in Sf9 insect cells and contains an N-terminal FLAG tag. The enzyme was obtained from Active Motif (Catalog No. 31432). The tri-methylated histone substrate peptide of purity greater than 95% was a synthetic peptide in which the first 21 amino acids correspond to the human histone H3 sequence with three extra amino acids and a biotin motif (GGK-biotin) linked to the C-terminus [sequence: ART-K(Me3)-QTARKSTGGKAPRKQLA-GGK-biotin-OH], (AnaSpec, Fremont, Calif. Catalog. No. ANA-1413). The reference inhibitor compound tranylcypromine (or trans-2-phenylcyclopropylamine hydrochloride, also known as, 2-PCPA) was purchased from Sigma (St. Louis, Mo. Cat. no. P8511). ULight-labeled streptavidin (ULight-SA, Catalog no. TRF0102), Eu-W1024-labeled anti-methyl-Histone H3 Lysine 4 (H3K4me1-2) Antibody (Catalog no. TRF0402), and LANCE detection buffer 10× (Catalog no. CR97-100) were obtained from PerkinElmer (Montreal, Quebec, Canada). The TR-FRET experiments were carried out in white, low-volume 384-wellplates purchased from PerkinElmer (ProxiPlate_-384 Plus, Catalog no. 6008280).
The TR-FRET signal was measured in the presence both of the bio-H3K4me3 peptide and FLAG-JARID1B by detecting any H3K4me2/1 peptide produced in the assay system. Assays using only the bio-H3K4me2 peptide were served as a positive control. Robust enzymatic progressions were observed by using JARID1B at concentrations ranging from 10 to 30 nM. In a typical TR-FRET experiment, JARID1B was pre-incubated with or without 0.1 uM of test-compounds (containing 1% DMSO final) for 5 min. The enzymatic reactions were initiated by the addition of 500 nM biotinylated H3K4me3 peptide substrate plus 500 uM of 2-OG 25 uM Fe(II) and 2 mM ascorbate. The reaction buffer also contained 50 mM Hepes (pH7.5), 0.01% (v/v) Tween 20, and 50 mM NaCl. The reaction mixture was incubated for 30 min at room temperature before reading on an EnVision plate reader (PerkinElmer, Waltham, Mass.).
Broadly, the inhibition is the change of the read-out against control, counted positive when it falls. In the case of `Cc1cccc(-c2cnn(-c3nccc4c(=O)[nH]cnc34)c2)c1` [Compound 1, 8-(4-(m-tolyl)-1H-pyrazol-1-yl)pyrido[3,4-d]pyrimidin-4(3H)-one], the inhibition at 0.1 µM was less than 20%.

On to `CN1CCN(Cc2ccc(-c3cnn(-c4nccc5c(=O)[nH]cnc45)c3)cc2)CC1` [Compound 2, 8-(4-(4-((4-methylpiperazin-1-yl)methyl)phenyl)-1H-pyrazol-1-yl)pyrido[3,4-d]pyrimidin-4(3H)-one], for which the inhibition at 0.1 µM is less than 20%.

With `O=c1[nH]cnc2c(-n3cc(-c4cccc(CO)c4)cn3)nccc12` [Compound 3, 8-(4-(3-(hydroxymethyl)phenyl)-1H-pyrazol-1-yl)pyrido[3,4-d]pyrimidin-4(3H)-one], the inhibition at 0.1 µM was less than 20%.

Turning to `O=c1[nH]cnc2c(-n3cc(-c4ccc(F)cc4)cn3)nccc12` [Compound 4, 8-(4-(4-fluorophenyl)-1H-pyrazol-1-yl)pyrido[3,4-d]pyrimidin-4(3H)-one], the inhibition at 0.1 µM was less than 20%.

On to `O=c1[nH]cnc2c(-n3cc(-c4cccc(OCc5ccccc5)c4)cn3)nccc12` [Compound 5, 8-(4-(3-(benzyloxy)phenyl)-1H-pyrazol-1-yl)pyrido[3,4-d]pyrimidin-4(3H)-one], for which the inhibition at 0.1 µM was less than 20%.

With `CN1CCN(Cc2cccc(-c3cnn(-c4nccc5c(=O)[nH]cnc45)c3)c2)CC1` [Compound 6, 8-(4-(3-((4-methylpiperazin-1-yl)methyl)phenyl)-1H-pyrazol-1-yl)pyrido[3,4-d]pyrimidin-4(3H)-one], the inhibition at 0.1 µM is less than 20%.

Consider `O=c1[nH]cnc2c(-n3cc(-c4cccc(CCCO)c4)cn3)nccc12` [Compound 7, 8-(4-(3-(3-hydroxypropyl)phenyl)-1H-pyrazol-1-yl)pyrido[3,4-d]pyrimidin-4(3H)-one], for which the inhibition at 0.1 µM is less than 20%.

Take `O=c1[nH]cnc2c(-n3cc(-c4ccccc4CO)cn3)nccc12` [Compound 9, 8-(4-(2-(hydroxymethyl)phenyl)-1H-pyrazol-1-yl)pyrido[3,4-d]pyrimidin-4(3H)-one]: the inhibition at 0.1 µM is less than 20%.

For `O=c1[nH]cnc2c(-n3cc(-c4ccccc4Oc4ccccc4)cn3)nccc12` [Compound 10, 8-(4-(2-phenoxyphenyl)-1H-pyrazol-1-yl)pyrido[3,4-d]pyrimidin-4(3H)-one], the inhibition at 0.1 µM is less than 20%.

`Cn1cc(-c2cnn(-c3nccc4c(=O)[nH]cnc34)c2)cn1` [Compound 11, 8-(1′-methyl-1H,1′H-[4,4′-bipyrazol]-1-yl)pyrido[3,4-d]pyrimidin-4(3H)-one]: the inhibition at 0.1 µM was less than 20%.

With `O=c1[nH]cnc2c(-n3cc(-c4cccnc4)cn3)nccc12` [Compound 12, 8-(4-(pyridin-3-yl)-1H-pyrazol-1-yl)pyrido[3,4-d]pyrimidin-4(3H)-one], the inhibition at 0.1 µM is less than 20%.

For the compound `O=c1[nH]cnc2c(-n3cc(-c4cnn(Cc5ccccc5)c4)cn3)nccc12` [Compound 13, 8-(1′-benzyl-1H,1′H-[4,4′-bipyrazol]-1-yl)pyrido[3,4-d]pyrimidin-4(3H)-one], the inhibition at 0.1 µM was less than 20%.

For `Nc1nn(-c2nccc3c(=O)[nH]cnc23)cc1-c1ccc(N2CCNCC2)nc1` [Compound 14, 8-(3-amino-4-(6-(piperazin-1-yl)pyridin-3-yl)-1H-pyrazol-1-yl)pyrido[3,4-d]pyrimidin-4(3H)-one], the inhibition at 0.1 µM lay within 20 to 50%.

`Cn1cc(-c2cn(-c3nccc4c(=O)[nH]cnc34)nc2N)cn1` [Compound 15, 8-(3-amino-1′-methyl-1H,1′H-[4,4'-bipyrazol]-1-yl)pyrido[3,4-d]pyrimidin-4(3H)-one]: the inhibition at 0.1 µM lay within 20 to 50%.

Consider `Nc1nn(-c2nccc3c(=O)[nH]cnc23)cc1-c1cccnc1` [Compound 16, 8-(3-amino-4-(pyridin-3-yl)-1H-pyrazol-1-yl)pyrido[3,4-d]pyrimidin-4(3H)-one], for which the inhibition at 0.1 µM is less than 20%.

As to `CN1CCN(c2ccc(-c3cn(-c4nccc5c(=O)[nH]cnc45)nc3N)cc2)CC1` [Compound 17, 8-(3-amino-4-(4-(4-methylpiperazin-1-yl)phenyl)-1H-pyrazol-1-yl)pyrido[3,4-d]pyrimidin-4(3H)-one], the inhibition at 0.1 µM was 20 to 50%.

In the case of `CC(=O)Nc1ccc(-c2cn(-c3nccc4c(=O)[nH]cnc34)nc2N)cc1` [Compound 18, N-(4-(3-amino-1-(4-oxo-3,4-dihydropyrido[3,4-d]pyrimidin-8-yl)-1H-pyrazol-4-yl)phenyl)acetamide], the inhibition at 0.1 µM was 20 to 50%.

As for `Nc1nn(-c2nccc3c(=O)[nH]cnc23)cc1-c1ccc(CCCO)cc1` [Compound 19, 8-(3-amino-4-(4-(3-hydroxypropyl)phenyl)-1H-pyrazol-1-yl)pyrido[3,4-d]pyrimidin-4(3H)-one], the inhibition at 0.1 µM lay within 20 to 50%.

With `Nc1nn(-c2nccc3c(=O)[nH]cnc23)cc1-c1cccc(N2CCNCC2)c1` [Compound 20, 8-(3-amino-4-(3-(piperazin-1-yl)phenyl)-1H-pyrazol-1-yl)pyrido[3,4-d]pyrimidin-4(3H)-one], the inhibition at 0.1 µM is not below 50%.

For the compound `Nc1nn(-c2nccc3c(=O)[nH]cnc23)cc1-c1ccc(C(=O)N2CCOCC2)cc1` [Compound 21, 8-(3-amino-4-(4-(morpholine-4-carbonyl)phenyl)-1H-pyrazol-1-yl)pyrido[3,4-d]pyrimidin-4(3H)-one], the inhibition at 0.1 µM is not below 50%.

Turning to `Nc1nn(-c2nccc3c(=O)[nH]cnc23)cc1-c1cnn(C2CCNCC2)c1` [Compound 22, 8-(3-amino-1′-(piperidin-4-yl)-1H,1′H-[4,4′-bipyrazol]-1-yl)pyrido[3,4-d]pyrimidin-4(3H)-one], the inhibition at 0.1 µM is not below 50%.

For the compound `Nc1nn(-c2nccc3c(=O)[nH]cnc23)cc1-c1ccc(F)cc1` [Compound 23, 8-(3-amino-4-(4-fluorophenyl)-1H-pyrazol-1-yl)pyrido[3,4-d]pyrimidin-4(3H)-one], the inhibition at 0.1 µM is not below 50%.

In the case of `CC(=O)c1ccc(-c2cn(-c3nccc4c(=O)[nH]cnc34)nc2N)cc1` [Compound 24, 8-(4-(4-acetylphenyl)-3-amino-1H-pyrazol-1-yl)pyrido[3,4-d]pyrimidin-4(3H)-one], the inhibition at 0.1 µM is not below 50%.

Regarding `Nc1nn(-c2nccc3c(=O)[nH]cnc23)cc1-c1ccc(O)cc1` [Compound 25, 8-(3-amino-4-(4-hydroxyphenyl)-1H-pyrazol-1-yl)pyrido[3,4-d]pyrimidin-4(3H)-one], the inhibition at 0.1 µM lay within 20 to 50%.

Turning to `Nc1nn(-c2nccc3c(=O)[nH]cnc23)cc1-c1cnn(CCO)c1` [Compound 26, 8-(3-amino-1′-(2-hydroxyethyl)-1H,1′H-[4,4′-bipyrazol]-1-yl)pyrido[3,4-d]pyrimidin-4(3H)-one], the inhibition at 0.1 µM was in the range of 20 to 50%.

On to `Nc1nn(-c2nccc3c(=O)[nH]cnc23)cc1-c1cnn(CCN2CCCC2)c1` [Compound 27, 8-(3-amino-1′-(2-(pyrrolidin-1-yl)ethyl)-1H,1′H-[4,4′-bipyrazol]-1-yl)pyrido[3,4-d]pyrimidin-4(3H)-one], for which the inhibition at 0.1 µM is 20 to 50%.

Consider `Nc1nn(-c2nccc3c(=O)[nH]cnc23)cc1-c1cnn(Cc2ccccc2)c1` [Compound 28, 8-(3-amino-1′-benzyl-1H,1′H-[4,4′-bipyrazol]-1-yl)pyrido[3,4-d]pyrimidin-4(3H)-one], for which the inhibition at 0.1 µM was not below 50%.

`Nc1nn(-c2nccc3c(=O)[nH]cnc23)cc1-c1cnn(CCN2CCOCC2)c1` [Compound 29, 8-(3-amino-1′-(2-morpholinoethyl)-1H,1′H-[4,4′-bipyrazol]-1-yl)pyrido[3,4-d]pyrimidin-4(3H)-one]: the inhibition at 0.1 µM is 20 to 50%.

As for `CN1CCN(CCn2cc(-c3cn(-c4nccc5c(=O)[nH]cnc45)nc3N)cn2)CC1` [Compound 30, 8-(3-amino-1′-(2-(4-methylpiperazin-1-yl)ethyl)-1H,1′H-[4,4′-bipyrazol]-1-yl)pyrido[3,4-d]pyrimidin-4(3H)-one], the inhibition at 0.1 µM fell in the range of 20 to 50%.
